Experimental data taken from patent publication US7981438B2, “Use of α-mangostin as a mosquito larvicide” (Wisconsin Alumni Research Foundation, priority 2007, dated 2011).
Counter-ions that a name gives are not always drawn.

Columns and labels:
[1] = test system: mosquito larvae; test: toxicity assessment (larval mortality, Probit LD50) in mosquito larvae; type: in vivo; details: for LD50 in 4th instar (ppm) / LD50 (uM) in 4th instar: 4th instar larvae
Procedure: Compound was tested at concentrations within the range of 0.65-25.00 μM. Each assay included 60 larvae (1st instar or 4th instar) in 60 ml ddH2O containing either compound or control agent, mortality was recorded until 90% adult emerge rate. The percentage of mortality was transformed into Probit value and plotted against concentration to determine the LD50 value. Each assay was repeated at least three times with different batches of larvae. The mean and standard deviation values are listed above. ND=not determined due to very low mortality.
Compounds were tested at concentrations within the range of 0.65-25.00 μM. Each assay included 60 larvae (1st instar or 4th instar) in 60 ml ddH2O containing either compound or control agent. Mortality was recorded until 90% adult emerge rate. The percentage of mortality was transformed into Probit value and plotted against concentrations to determine the LD50 value. Each assay was repeated at least three times with different batches of larvae.

[2] = test system: complement C3; details: compared with phytoestrogens; FIG. 5, Hopert et al. 1998; cited from earlier work
[3] = test system: mosquito 4th instar larvae; test: neutral lipid levels in the midgut of 4th instar larvae (Red Oil O staining); type: in vivo
Procedure: The newly molted 4th instar larvae were treated with DMSO (the negative control), 25 μM SCPI-1 (the positive control), and 10 μM α-mangostin. The midgut tissue was dissected out at the indicated point in time after treatment initiation. The dissected treated midgut tissue was stained with Red Oil O for neutral lipids in situ.

[4] = biological target: T1, recombinant AeSCP-2 (Aedes aegypti, UniProt Q86PR3); test: in vitro competition binding assay, NBD-cholesterol binding to AeSCP-2; set-up: species or system mosquito; details: at 0.1 mM concentration
T1 sequence (Q86PR3 1-110): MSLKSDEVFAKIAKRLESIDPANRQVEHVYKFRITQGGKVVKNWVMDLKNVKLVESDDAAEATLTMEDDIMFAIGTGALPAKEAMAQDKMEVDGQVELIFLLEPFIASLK
Procedure: At 0.1 mM concentration, α-mangostin decreased NBD-cholesterol binding to AeSCP-2 by 23-29%. […] Specifically, FIG. 1 illustrates the inhibitory effect of α-mangostin on NBD-cholesterol binding to recombinant AeSCP-2. RFU=relative NBD-cholesterol fluorescent unit normalized with NBD-cholesterol background readings. The assays that were used included 5 μM NBD-cholesterol+5 uM AeSCP-2+increasing concentrations of α-mangostin in […] potassium phosphate buffer (pH 7.4).

[5] = 1st instar larvae, same LD50 expressed in ppm
[6] = 1st instar larvae, tested 0.65-25.00 μM, mean ± SD
[7] = tested 0.65-25.00 μM, mean ± SD

Row | Compound | LD50 (uM) in 1st instar ([1]; mosquito, in vivo) [µM] | LD50 in 1st instar (ppm) ([1]; mosquito, in vivo) | LD50 in 1st instar (ppm) [1, 5] [ppm] | LD50 (uM) in 1st instar [1, 6] [µM] | reproductive side effects in mammals, measured by formation of complement C3 [2] | LD50 in 4th instar (ppm) ([1]; same LD50 expressed in ppm) | LD50 (uM) in 4th instar [1, 7] [µM] | neutral lipids in the midgut ([3]; 10 μM α-mangostin, after 24 hours treatment, 4th instar larvae) | decrease of NBD-cholesterol binding to AeSCP-2 [4] | fraction of midgut neutral lipids depleted ([3]; 25 μM SCPI-1, 24 hour-old 4th instar larvae)
1 | COc1ccc(-c2cc(=O)c3c(O)cc(O)c(-c4cc(-c5cc(=O)c6c(O)cc(O)cc6o5)ccc4OC)c3o2)cc1 [isoginkgetin] | 11.29 ± 3.00 | 6.60 |  |  |  |  |  |  |  | 
2 | obtusauione |  |  | 1.62 | 6.36 ± 1.70 |  |  |  |  |  | 
3 | COc1c2c(c(CC=C(C)C)c3oc(=O)c(-c4ccc(O)cc4)c(O)c13)OC(C)(C)C=C2 [lonchocarpic acid] |  |  | 5.21 | 11.99 ± 1.93 |  |  |  |  |  | 
4 | COc1c(O)cc2oc3cc(O)c(CC=C(C)C)c(O)c3c(=O)c2c1CC=C(C)C [α-mangostin, 3,6,8-Trihydroxy-2-methoxy-1,7-bis(3-methylbut-2-enyl)xanthen-9-one] |  |  | 1.12 | 2.73 ± 2.46 | does not induce reproductive side effects | (or, 4.18 ppm) | 10.18 ± 1.49 | scant amounts of neutral lipids | 23-29% | 
5 | CC(=O)Nc1ccc(Nc2nc(-c3ccc(Cl)c(Cl)c3)cs2)cc1 [SCPI-1, N-(4-{[4-(3,4-dichlorophenyl)-1,3-thiazol-2-yl]amino}phenyl)acetamide hydrobromide, reference compound] |  |  | 1.93 | 4.21 ± 0.38 |  | (or, 11.04 ppm) | 24.04 ± 4.16 |  |  | about ½
